Laboratory results published in the supplement of paper PMC6045584.
± gives the standard deviation of the averaged measurements.

How the values were obtained:
RESVERATROL = compound: Oc1ccc(/C=C/c2cc(O)cc(O)c2)cc1 [RESVERATROL]; assay: area under dose-response curve of surviving fraction (unscaled, Aref=0) (surviving fraction x log10(nM)); higher = more resistant; conditions: exposure time: 5 days; dose range 0.5-1000 nM
How it was run: (§1)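 Inhibitor was applied to tumour cell lines at eight concentrations (0.5 to 1000 nM) for five days in 384-well plates. Luminescence from CellTiter-Glo, scaled to DMSO-only wells, gave surviving fractions in three screens per line, and these were fitted by 3-parameter logistic regression with the drc R package. The area under the curve is an unscaled activity area. Aref was 0, and dose was on a log10 scale.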

LAPATINIB = compound: CS(=O)(=O)CCNCc1ccc(-c2ccc3ncnc(Nc4ccc(OCc5cccc(F)c5)c(Cl)c4)c3c2)o1 [LAPATINIB]; assay: as above; conditions: exposure time: 5 days; dose range 0.5-1000 nM
How it was run: as §1

17-AAG = compound: C=CCNC1=C2C[C@@H](C)C[C@H](OC)[C@H](O)[C@@H](C)/C=C(\C)[C@H](OC(N)=O)[C@@H](OC)/C=C\C=C(/C)C(=O)NC(=CC1=O)C2=O [17-AAG]; assay: as above; conditions: exposure time: 5 days; dose range 0.5-1000 nM
How it was run: as §1

SALINOMYCIN = compound: CC[C@@H](C(=O)[C@@H](C)[C@@H](O)[C@H](C)[C@@H]1O[C@@H]([C@@H](CC)C(=O)O)CC[C@@H]1C)[C@H]1O[C@]2(C=C[C@@H](O)[C@]3(CC[C@@](C)([C@H]4CC[C@](O)(CC)[C@H](C)O4)O3)O2)[C@H](C)C[C@@H]1C [SALINOMYCIN]; assay: as above; conditions: exposure time: 5 days; dose range 0.5-1000 nM
How it was run: as §1

DOXORUBICIN [1] = compound: T1, COc1cccc2c1C(=O)c1c(O)c3c(c(O)c1C2=O)C[C@@](O)(C(=O)CO)C[C@@H]3O[C@H]1C[C@H](N)[C@H](O)[C@H](C)O1 [DOXORUBICIN]; assay: as above; conditions: exposure time: 5 days; dose range 0.5-1000 nM
How it was run: as §1

FLUOROURACIL = compound: O=c1[nH]cc(F)c(=O)[nH]1 [FLUOROURACIL]; assay: as above; conditions: exposure time: 5 days; dose range 0.5-1000 nM
How it was run: as §1

FLAVOPIRIDOL = compound: CN1CC[C@H](c2c(O)cc(O)c3c(=O)cc(-c4ccccc4Cl)oc23)[C@H](O)C1 [FLAVOPIRIDOL]; assay: as above; conditions: exposure time: 5 days; dose range 0.5-1000 nM
How it was run: as §1

2-METHOXYESTRADIOL = compound: COc1cc2c(cc1O)CC[C@@H]1[C@@H]2CC[C@]2(C)[C@@H](O)CC[C@@H]12 [2-METHOXYESTRADIOL]; assay: as above; conditions: exposure time: 5 days; dose range 0.5-1000 nM
How it was run: as §1

DECITABINE = compound: Nc1ncn([C@H]2C[C@H](O)[C@@H](CO)O2)c(=O)n1 [DECITABINE]; assay: as above; conditions: exposure time: 5 days; dose range 0.5-1000 nM
How it was run: as §1

VISMODEGIB = compound: CS(=O)(=O)c1ccc(C(=O)Nc2ccc(Cl)c(-c3ccccn3)c2)c(Cl)c1 [VISMODEGIB]; assay: as above; conditions: exposure time: 5 days; dose range 0.5-1000 nM
How it was run: as §1

DOXORUBICIN [2] = compound: T1, DOXORUBICIN; assay: surviving fraction relative to DMSO-only wells; higher = less growth inhibition; conditions: exposure time: 5 days
How it was run: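 Surviving fraction was calculated by normalising CellTiter-Glo luminescence to the median of DMSO-only wells. Tumour cell lines in log phase were seeded in 384-well plates at 250–500 cells per well, and 24 hours later were exposed continuously for five days to inhibitors at 0.5, 1, 5, 10, 50, 100, 500 and 1000 nM.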

ABT-737 = compound: CN(C)CC[C@H](CSc1ccccc1)Nc1ccc(S(=O)(=O)NC(=O)c2ccc(N3CCN(Cc4ccccc4-c4ccc(Cl)cc4)CC3)cc2)cc1[N+](=O)[O-] [ABT-737]; assay: area under dose-response curve of surviving fraction (unscaled, Aref=0) (surviving fraction x log10(nM)); higher = more resistant; conditions: exposure time: 5 days; dose range 0.5-1000 nM
How it was run: as §1

[3] = compound: CCN(CC)CCCCNc1ncc2cc(-c3cc(OC)cc(OC)c3)c(NC(=O)NC(C)(C)C)nc2n1; assay: as above; conditions: exposure time: 5 days; dose range 0.5-1000 nM
How it was run: as §1

BT549 BREAST
area under dose-response curve (RESVERATROL): 3.52 | area under dose-response curve (LAPATINIB): 3.45 | area under dose-response curve (17-AAG): 1.1 | area under dose-response curve (SALINOMYCIN): 2.75 | area under dose-response curve (DOXORUBICIN [1]): 1.41 | area under dose-response curve (FLUOROURACIL): 2.98 | area under dose-response curve (FLAVOPIRIDOL): 2.02 | area under dose-response curve (2-METHOXYESTRADIOL): 3.02 | area under dose-response curve (DECITABINE): 2.69 | area under dose-response curve (VISMODEGIB): 2.93 | surviving fraction (DOXORUBICIN [2]; 0.5 nM): 1.07 ± 0.1 | surviving fraction (DOXORUBICIN [2]; 1 nM): 1.03 ± 0.23 | surviving fraction (DOXORUBICIN [2]; 5 nM): 0.896 ± 0.087 | surviving fraction (DOXORUBICIN [2]; 10 nM): 0.378 ± 0.095 | surviving fraction (DOXORUBICIN [2]; 50 nM): 0.229 ± 0.022 | surviving fraction (DOXORUBICIN [2]; 100 nM): 0.0903 ± 0.019 | surviving fraction (DOXORUBICIN [2]; 500 nM): 0.0257 ± 0.0057 | surviving fraction (DOXORUBICIN [2]; 1000 nM): 0.0267 ± 0.0015

C33A CERVIX
area under dose-response curve (RESVERATROL): 3.17 | area under dose-response curve (LAPATINIB): 2.92 | area under dose-response curve (SALINOMYCIN): 2.96 | area under dose-response curve (DOXORUBICIN [1]): 1.46 | area under dose-response curve (FLUOROURACIL): 3.66 | area under dose-response curve (FLAVOPIRIDOL): 2.27 | area under dose-response curve (ABT-737): 3.38 | area under dose-response curve (2-METHOXYESTRADIOL): 2.91 | area under dose-response curve (DECITABINE): 3.03 | area under dose-response curve (VISMODEGIB): 3.15 | area under dose-response curve [3]: 2.88 | surviving fraction (DOXORUBICIN [2]; 0.5 nM): 0.842 ± 0.066 | surviving fraction (DOXORUBICIN [2]; 1 nM): 0.988 ± 0.068 | surviving fraction (DOXORUBICIN [2]; 5 nM): 0.779 ± 0.055 | surviving fraction (DOXORUBICIN [2]; 10 nM): 0.604 ± 0.045 | surviving fraction (DOXORUBICIN [2]; 50 nM): 0.122 ± 0.013 | surviving fraction (DOXORUBICIN [2]; 100 nM): 0.085 ± 0.0096 | surviving fraction (DOXORUBICIN [2]; 500 nM): 0.0347 ± 0.0086 | surviving fraction (DOXORUBICIN [2]; 1000 nM): 0.04 ± 0.0079

CADOES1 SOFT TISSUE
area under dose-response curve (RESVERATROL): 3.21 | area under dose-response curve (17-AAG): 2.76 | area under dose-response curve (SALINOMYCIN): 2.37 | area under dose-response curve (DOXORUBICIN [1]): 1.99 | area under dose-response curve (FLUOROURACIL): 3.05 | area under dose-response curve (FLAVOPIRIDOL): 1.8 | area under dose-response curve (ABT-737): 2.63 | area under dose-response curve (2-METHOXYESTRADIOL): 3.23 | area under dose-response curve (DECITABINE): 2.23 | area under dose-response curve (VISMODEGIB): 3.17 | area under dose-response curve [3]: 3.03 | surviving fraction (DOXORUBICIN [2]; 0.5 nM): 0.93 ± 0.061 | surviving fraction (DOXORUBICIN [2]; 1 nM): 0.795 ± 0.037 | surviving fraction (DOXORUBICIN [2]; 5 nM): 0.926 ± 0.078 | surviving fraction (DOXORUBICIN [2]; 10 nM): 0.812 ± 0.12 | surviving fraction (DOXORUBICIN [2]; 50 nM): 0.573 ± 0.052 | surviving fraction (DOXORUBICIN [2]; 100 nM): 0.323 ± 0.035 | surviving fraction (DOXORUBICIN [2]; 500 nM): 0.093 ± 0.0087 | surviving fraction (DOXORUBICIN [2]; 1000 nM): 0.0643 ± 0.011

H23 LUNG
area under dose-response curve (RESVERATROL): 3.42 | area under dose-response curve (LAPATINIB): 2.77 | area under dose-response curve (17-AAG): 1.66 | area under dose-response curve (DOXORUBICIN [1]): 1.79 | area under dose-response curve (FLUOROURACIL): 3.28 | area under dose-response curve (FLAVOPIRIDOL): 2.33 | area under dose-response curve (ABT-737): 3.5 | area under dose-response curve (2-METHOXYESTRADIOL): 3.11 | area under dose-response curve (DECITABINE): 2.74 | area under dose-response curve (VISMODEGIB): 3.43 | area under dose-response curve [3]: 3.28 | surviving fraction (DOXORUBICIN [2]; 0.5 nM): 1.01 ± 0.016 | surviving fraction (DOXORUBICIN [2]; 1 nM): 1.03 ± 0.027 | surviving fraction (DOXORUBICIN [2]; 5 nM): 1 ± 0.034 | surviving fraction (DOXORUBICIN [2]; 10 nM): 0.629 ± 0.058 | surviving fraction (DOXORUBICIN [2]; 50 nM): 0.403 ± 0.031 | surviving fraction (DOXORUBICIN [2]; 100 nM): 0.237 ± 0.028 | surviving fraction (DOXORUBICIN [2]; 500 nM): 0.0293 ± 0.0015 | surviving fraction (DOXORUBICIN [2]; 1000 nM): 0.0267 ± 0.0021

HCC78 LUNG
area under dose-response curve (LAPATINIB): 2.99 | area under dose-response curve (17-AAG): 1.44 | area under dose-response curve (SALINOMYCIN): 2.33 | area under dose-response curve (DOXORUBICIN [1]): 1.2 | area under dose-response curve (FLUOROURACIL): 3.24 | area under dose-response curve (FLAVOPIRIDOL): 1.62 | area under dose-response curve (2-METHOXYESTRADIOL): 2.57 | area under dose-response curve (DECITABINE): 2.49 | area under dose-response curve (VISMODEGIB): 3.52 | area under dose-response curve [3]: 3.12 | surviving fraction (DOXORUBICIN [2]; 0.5 nM): 0.894 ± 0.24 | surviving fraction (DOXORUBICIN [2]; 1 nM): 0.733 ± 0.17 | surviving fraction (DOXORUBICIN [2]; 5 nM): 0.63 ± 0.1 | surviving fraction (DOXORUBICIN [2]; 10 nM): 0.538 ± 0.083 | surviving fraction (DOXORUBICIN [2]; 50 nM): 0.0747 ± 0.013 | surviving fraction (DOXORUBICIN [2]; 100 nM): 0.0363 ± 0.0042 | surviving fraction (DOXORUBICIN [2]; 500 nM): 0.0317 ± 0.0015 | surviving fraction (DOXORUBICIN [2]; 1000 nM): 0.0217 ± 0.0042

HCC1395 BREAST
area under dose-response curve (RESVERATROL): 3.66 | area under dose-response curve (LAPATINIB): 3.36 | area under dose-response curve (17-AAG): 3.19 | area under dose-response curve (FLUOROURACIL): 3.24 | area under dose-response curve (ABT-737): 3.99 | area under dose-response curve (2-METHOXYESTRADIOL): 3.84 | area under dose-response curve (DECITABINE): 4.02 | area under dose-response curve (VISMODEGIB): 2.48 | area under dose-response curve [3]: 2.85 | surviving fraction (DOXORUBICIN [2]; 0.5 nM): 0.926 ± 0.18 | surviving fraction (DOXORUBICIN [2]; 1 nM): 1.11 ± 0.18 | surviving fraction (DOXORUBICIN [2]; 5 nM): 1.03 ± 0.036 | surviving fraction (DOXORUBICIN [2]; 10 nM): 1.19 ± 0.11 | surviving fraction (DOXORUBICIN [2]; 50 nM): 0.928 ± 0.11 | surviving fraction (DOXORUBICIN [2]; 100 nM): 1.07 ± 0.08 | surviving fraction (DOXORUBICIN [2]; 500 nM): 0.693 ± 0.085 | surviving fraction (DOXORUBICIN [2]; 1000 nM): 0.808 ± 0.091
